Test results from publication PMC2768106, “Effects of VEGFR-3 phosphorylation inhibitor on lymph node metastasis in an orthotopic diffuse-type gastric carcinoma model” (British Journal of Cancer, 2009).

Target: T1, VEGFR-3 (vascular endothelial growth factor receptor-3, Flt-4) (Homo sapiens, UniProt P35916)
T1 construct: gene FLT4
Assay: cell-free kinase (autophosphorylation) assay; also HUVEC cellular VEGFR-3 phosphorylation, IC50 […]
Format: biochemical

T1 sequence (P35916 25-1363): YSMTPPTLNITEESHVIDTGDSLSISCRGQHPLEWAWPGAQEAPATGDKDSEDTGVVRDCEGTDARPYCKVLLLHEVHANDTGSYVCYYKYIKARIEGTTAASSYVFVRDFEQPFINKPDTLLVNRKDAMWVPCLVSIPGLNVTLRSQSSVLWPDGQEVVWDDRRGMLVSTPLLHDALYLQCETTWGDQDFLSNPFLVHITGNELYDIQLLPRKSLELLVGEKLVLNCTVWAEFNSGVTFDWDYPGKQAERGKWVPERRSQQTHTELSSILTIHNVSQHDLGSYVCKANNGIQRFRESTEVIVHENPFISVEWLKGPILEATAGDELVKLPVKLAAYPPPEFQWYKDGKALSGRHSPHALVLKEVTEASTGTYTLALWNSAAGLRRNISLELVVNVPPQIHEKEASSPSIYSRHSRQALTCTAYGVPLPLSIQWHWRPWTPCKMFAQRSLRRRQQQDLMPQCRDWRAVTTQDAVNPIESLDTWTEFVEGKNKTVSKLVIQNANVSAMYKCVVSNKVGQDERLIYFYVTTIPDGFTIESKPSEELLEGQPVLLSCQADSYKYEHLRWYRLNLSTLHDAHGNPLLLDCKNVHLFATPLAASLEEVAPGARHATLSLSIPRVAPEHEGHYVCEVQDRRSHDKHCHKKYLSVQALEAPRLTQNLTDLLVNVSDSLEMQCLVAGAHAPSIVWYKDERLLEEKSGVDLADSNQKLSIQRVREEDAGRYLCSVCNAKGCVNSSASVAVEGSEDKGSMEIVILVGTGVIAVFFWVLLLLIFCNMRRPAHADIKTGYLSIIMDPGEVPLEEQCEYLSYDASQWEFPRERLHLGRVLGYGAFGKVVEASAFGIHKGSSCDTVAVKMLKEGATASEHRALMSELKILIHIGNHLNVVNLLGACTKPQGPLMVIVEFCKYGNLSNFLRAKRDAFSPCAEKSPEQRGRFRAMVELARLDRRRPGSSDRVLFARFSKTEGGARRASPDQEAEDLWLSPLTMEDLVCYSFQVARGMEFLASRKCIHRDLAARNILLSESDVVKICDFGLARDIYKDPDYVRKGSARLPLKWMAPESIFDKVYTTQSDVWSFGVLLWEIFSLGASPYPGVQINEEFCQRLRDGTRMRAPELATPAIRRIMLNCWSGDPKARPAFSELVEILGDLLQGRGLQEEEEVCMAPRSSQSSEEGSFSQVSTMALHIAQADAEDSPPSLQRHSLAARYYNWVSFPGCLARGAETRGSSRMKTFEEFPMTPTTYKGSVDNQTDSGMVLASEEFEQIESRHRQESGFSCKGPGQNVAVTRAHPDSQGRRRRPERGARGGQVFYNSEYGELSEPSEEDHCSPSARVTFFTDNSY

For COc1cc2c(Oc3ccc(Nc4ccc(C(C)(C)C)cc4)cc3)ccnc2cc1OCCNCCO [Ki23057], the IC50 was 4.3 nM.
